Assay results as given in patent US10787413B2, “Derivatives of curcuminoids and use thereof as an anticancer agent” (CHINA MEDICAL UNIVERSITY, priority 2016, dated 2020).
Read-outs that look alike come from different tables or passages of the source.

Tests used:
[1] = Preliminary acute toxicity assay; settings: oral 500 mg/kg/day for 5 consecutive days, 21 days observation, vs untreated control
Experimental: Normal mice were treated with 21a or 35a by oral route at 500 mg/kg/day for 5 consecutive days, following by 21 days of post-treatment observation. […] Detailed data for their toxicology and safety pharmacology studies will be carried out in the near future.
Female nu/nu mice (5 weeks old) were P.O. with vehicle (propylene glycol, 0.1 ml) or high dose of 21a (250 and 500 mg/kg) and 35a (500 mg/kg) for 5 days followed by observation of behavior and lethargy for 21 days.

[2] = tested on: PC3 prostate cancer cell; assay: MTT cell viability assay, PC3 prostate cancer cell; format: cell-based
Experimental: (§1) Cell viability was evaluated by measuring the reduction in MTT to yield blue formazan. Cells were cultured in 96-well plates, allowed to attach overnight, and then treated with compounds. After treatment, MTT solution (1 mg/ml) was added to each well, and plates were incubated for another 4 h. Medium were removed, blue formazan was dissolved in DMSO, and the absorbance was read at 570 nm^20.

[3] = tested on: MDA-MB-231 breast cancer cell; assay: MTT cell viability assay, MDA-MB-231 breast cancer cell; format: cell-based, human; settings: for IC50: Homo sapiens
Experimental: Cell viability was evaluated by measuring the reduction in MTT to yield blue formazan. Cells were cultured in 96-well plates, allowed to attach overnight, and then treated with compounds. After treatment, MTT solution (1 mg/ml) was added to each well, and plates were incubated for another 4 h.

[4] = tested on: HCT-116 colon cancer cell; assay: MTT cell viability assay, HCT-116 colon cancer cell; format: cell-based; settings: Homo sapiens
Experimental: as §1

[5] = tested on: Doxorubicin-resistant MDA-MB-231; assay: Cell viability, Doxorubicin-resistant MDA-MB-231; format: cell-based; settings: for IC50: Doxorubicin-resistant MDA-MB-231, treated for 24 h
Experimental: as §1

[6] = tested on: MDA-MB-468; assay: Cell viability, MDA-MB-468 breast cancer cells; format: cell-based; settings: Homo sapiens; MDA-MB-468 (Triple negative), treated for 24 h
Experimental: as §1

[7] = tested on: MCF-7; assay: Cell viability, MCF-7 breast cancer cells; format: cell-based; settings: Homo sapiens, MCF7; MCF-7 (ER+/PR+), treated for 24 h
Experimental: as §1

[8] = tested on: BT-474; assay: Cell viability, BT-474 breast cancer cells; format: cell-based; settings: Homo sapiens; BT-474 (Her-2+), treated for 24 h
Experimental: as §1

[9] = tested on: HS-578T; assay: Cell viability, HS-578T breast cancer cells; format: cell-based; settings: Homo sapiens; HS-578T (Triple negative), treated for 24 h
Experimental: as §1

[10] = tested on: MDA-MB-231 Xenograft; assay: In vivo antitumor activity, MDA-MB-231 Xenograft nude mice model; settings: treated vs untreated control group during antitumor evaluation
Experimental: Female nu/nu mice (5 weeks old) were from National Laboratory Animal Center, Taipei, Taiwan. Mice were maintained under the procedures and guidelines from the Institutional Animal Care and Use Committee of the National Health Research Institutes, Taipei, Taiwan. All experiments were supervised under the Institutional Animal Care and Use Committee, China Medical University, Taichung, Taiwan. MDA-MB-231 breast cancer cells (5×10^6 cells per mouse) were suspended in 0.1 ml of Matrigel solution (50% (v/v) Matrigel in PBS) and inoculated into the mammary fat pads of the mice. […] Compounds was administered P.O. once every day for 32 days. Tumor size and mouse body weight were measured once every 4 days, and tumor volume (mm3) was calculated using the equation: length×(width)^2×0.5. At the end of experiments, mice were sacrificed and tumor nodules were dissected and weighed.

[11] = tested on: MDA-MB-453; assay: Cell viability, MDA-MB-453 breast cancer cells; format: cell-based; settings: Homo sapiens; MDA-MB-453 (Her-2+), treated for 24 h
Experimental: as §1

[12] = tested on: T47D; assay: Cell viability, T47D breast cancer cells; format: cell-based; settings: Homo sapiens; T47D (ER+/PR+), treated for 24 h
Experimental: as §1

[13] = tested on: MDA-MB-157; assay: Cell viability, MDA-MB-157 breast cancer cells; format: cell-based; settings: Homo sapiens; MDA-MB-157 (Triple negative), treated for 24 h
Experimental: as §1

[14] = tested on: SKBR-3; assay: Cell viability, SKBR-3 breast cancer cells; format: cell-based; settings: Homo sapiens, SK-BR-3; SKBR-3 (Her-2+), treated for 24 h
Experimental: as §1

[15] = PC-3, treated 24 hours, read-out: IC50 24 hours
[16] = PC-3, treated 72 hours, read-out: IC50 72 hours
[17] = HCT-116, treated 24 hours, read-out: IC50 24 hours
[18] = HCT-116, treated 48 hours, read-out: IC50 48 hours
[19] = HCT-116, treated 72 hours, read-out: IC50 72 hours

For COc1cc(/C=C/C(=O)C(C)(C)C(=O)/C=C/c2ccc(OC(=O)C(C)(CO)CO)c(OC)c2)ccc1OC(=O)C(C)(CO)CO [Compound 35a, ((1E,6)-4,4-Dimethyl-3,5-dioxohept-1,6-diene-1,7-diyl)bis(2-methoxy-4,1-phenylene) bis(3-hydroxy-2-(hydroxymethyl)-2-methylpropanoate)], the “body weight and behavior change” value [1] was “no significant difference”, the IC50 [2, 15] was 3.49 ± 0.4 µM and the IC50 [2, 16] was 1.76 ± 0.14 µM. The IC50 ([3]; MDA-MB-231, 24 h, MDA-MB-231, treated 24 hours, read-out: IC50 24 hours) was 5.33 ± 0.69 µM, the IC50 ([3]; MDA-MB-231, 72 h, MDA-MB-231, treated 72 hours, read-out: IC50 72 hours) was 1.98 µM and the “times more potent than curcumin (IC50)” value ([3]; MDA-MB-231, 72 h treatment, curcumin IC50 16.23 μM) was 8.2 times. The IC50 [4, 17] was 6.67 ± 0.43 µM, the IC50 [4, 18] was 3.35 ± 0.09 µM and the IC50 [4, 19] was 1.65 ± 0.16 µM. The “times greater inhibitory activity than curcumin” value ([5]; Doxorubicin-resistant MDA-MB-231) was 10 times and the IC50 ([5]; Homo sapiens, MDA-MB-231, 24 h) was 5.7 µM.

For COc1cc(/C=C/C(=O)/C=C(O)/C=C/c2ccc(O)c(OC)c2)ccc1O [Curcumin, (E,E)-1,7-bis (4-hydroxy-3-methoxyphenyl)-1,6-heptadiene-3,5-dione], the IC50 [6] was 42.9 ± 2.35 µM, the IC50 [7] was 42.9 ± 2.36 µM and the IC50 [8] was 30.1 ± 1.42 µM. The IC50 [9] was 55.5 ± 1.39 µM, the “body weight, behavior change and blood chemistry (serology detection)” value [10] was “no significant difference” and the IC50 [2, 15] was 57.1 ± 10.1 µM. It also gave an IC50 ([2]; PC-3, treated 48 hours, read-out: IC50 48 hours) of 30 ± 0.72 µM, an IC50 [2, 16] of 18.8 ± 1.31 µM and an IC50 [11] of 32.4 ± 1.41 µM. For the same compound, the IC50 [12] was 47.9 ± 3.9 µM, the IC50 [13] was 40.4 ± 3.26 µM and the IC50 ([3]; MDA-MB-231, 24 h, read-out: IC50 24 hours) was 38.8 ± 3.35 µM. The IC50 ([3]; MDA-MB-231, 48 h, read-out: IC50 48 hours) was 22.1 ± 2.97 µM, the IC50 ([3]; MDA-MB-231, treated 72 hours, read-out: IC50 72 hours) was 16.2 µM and the IC50 [4, 17] was 78 ± 11.2 µM. For the same compound, the IC50 [4, 18] was 26.3 ± 1.38 µM, the IC50 [4, 19] was 13.8 ± 0.5 µM and the IC50 [14] was 42.8 ± 1.47 µM. For the same compound, the IC50 [5] was 58.6 ± 4.03 µM and the IC50 ([5]; Homo sapiens, MDA-MB-231, 24 h) was 57.6 µM.
